According to article PMC12406652 (Antimicrobial Agents and Chemotherapy, 2025):
Marks after values point to notes of the source that are not given here.

Columns and labels:
[1] = Plasma pharmacokinetics after single ascending doses of LED-E (VNRX-7145-101 Part 1); format: in vivo; conditions: human, oral; for AUC(0-inf) / Cmax / half-life: geometric mean (CV %); for half-life: read-out: t1/2 (converted); for Tmax: median (range)
Procedure: (§1) Quantitation used separate weighted 1 /x^2 linear least-squares regression analyses generated from calibration standards. Exploratory screening for metabolites was performed for some samples. […] Single-dose plasma pharmacokinetic parameters were determined in Part 1, and both single-dose (Day 1) and multiple-dose (Day 12) parameters were determined in Part 2. […] Dose proportionality was analyzed using a power model in which pharmacokinetic exposure parameters and dose were converted to the natural log and linear regression results were reported, with the slope as the power estimate ([15]). […] In Part 2, achievement of steady-state concentrations was assessed using Tukey’s multiple comparison test for pre-dose and all dosing days (Days 2 to 10) for each dose level separately. In both studies, plasma pharmacokinetic parameters were calculated using WinNonlin (Certara; Radnor, PA), and urine pharmacokinetic parameters were calculated using SAS (SAS Institute; Cary, NC).

[2] = Plasma pharmacokinetics on Day 10 after multiple doses of LED-E q8h (VNRX-7145-101 Part 2, VNRX-7145-102 Part 2); format: in vivo, human; conditions: for AUC / Cmax / Tmax / half-life: human, oral, plasma; for Tmax: median (range)
Procedure: as §1, with “Single-dose plasma pharmacokinetic parameters were determined in Part 1, and both single-dose (Day 1) and multiple-dose (Day 12) parameters were determined in Part 2.” left out, “separately. […] Plasma pharmacokinetic parameters were calculated using noncompartmental analysis of the plasma and urine concentration-time data. […] AUCinf and Cmax were natural log-transformed before analysis, using a linear mixed effects model. […]” for “separately.”

[3] = Urinary pharmacokinetics after single doses of LED-E; format: in vivo, human; conditions: urine, geometric mean (geometric CV %); for CL renal: human, oral
Procedure: Plasma and urine pharmacokinetics samples were assayed for LED-E, LED, and CTB, as appropriate using validated bioanalytical methods. […] Quantitation used separate weighted 1 /x^2 linear least-squares regression analyses generated from calibration standards. Exploratory screening for metabolites was performed for some samples. In both studies, plasma pharmacokinetic parameters were calculated using WinNonlin (Certara; Radnor, PA), and urine pharmacokinetic parameters were calculated using SAS (SAS Institute; Cary, NC).

[4] = Urinary pharmacokinetics on Day 10 after multiple doses of LED-E q8h; format: in vivo, human; conditions: urine; for CL renal: oral; for CL renal / Ae0–8 / Ae0–48: geometric mean (geometric CV %); for Ae0–8 / Ae0–48: after last dose (Day 10)
Procedure: Quantitation used separate weighted 1 /x^2 linear least-squares regression analyses generated from calibration standards. Exploratory screening for metabolites was performed for some samples. […] Plasma pharmacokinetic parameters were calculated using noncompartmental analysis of the plasma and urine concentration-time data. […] AUCinf and Cmax were natural log-transformed before analysis, using a linear mixed effects model. […] In both studies, plasma pharmacokinetic parameters were calculated using WinNonlin (Certara; Radnor, PA), and urine pharmacokinetic parameters were calculated using SAS (SAS Institute; Cary, NC).

[5] = Urinary recovery on Day 10 after multiple doses of CTB + LED-E q8h (VNRX-7145-102 Part 3); conditions: urine, geometric mean (geometric CV %); for CL renal: human, oral, CLr
[6] = Plasma pharmacokinetics on Day 10 after multiple doses of CTB + LED-E q8h (VNRX-7145-102 Part 3); conditions: human, oral; for AUC: AUCtau; for AUC / Cmax / half-life: geometric mean (CV %)
[7] = 1000 mg, single dose LED-E 1,000 mg
[8] = Day 10, LED-E 150 mg q8h, geometric mean (CV %)
[9] = Day 10, LED-E 300 mg q8h, geometric mean (CV %)
[10] = Day 10, LED-E 500 mg q8h, geometric mean (CV %)
[11] = multiple doses LED-E 150 mg q8h
[12] = multiple doses LED-E 300 mg q8h
[13] = multiple doses LED-E 500 mg q8h
[14] = Day 10, CTB 400 mg + LED-E 300 mg q8h
[15] = Day 10, CTB 400 mg + LED-E 500 mg q8h

**Q.** With `CCC(=O)N[C@H]1Cc2cccc(C(=O)O)c2OB1O` [Ledaborbactam, ledaborbactam] as the compound, how does the AUC(0-inf) [1, 7] read?
**A.** 114000 ng·h/mL

**Q.** What about the Cmax [1, 7] of the same compound?
**A.** 26500 ng/mL

**Q.** And the half-life [1, 7]?
**A.** 11.3 h

**Q.** What about the Tmax [1, 7] of the same compound?
**A.** 2 h

**Q.** And the AUC(0-inf) ([1]; single dose LED-E 100 mg)?
**A.** 15400 ng·h/mL

**Q.** What about the Cmax ([1]; single dose LED-E 100 mg) of the same compound?
**A.** 4010 ng/mL

**Q.** And the half-life ([1]; single dose LED-E 100 mg)?
**A.** 5.53 h

**Q.** And the AUC(0-inf) ([1]; single dose LED-E 200 mg)?
**A.** 26200 ng·h/mL

**Q.** What about the Cmax ([1]; single dose LED-E 200 mg) of the same compound?
**A.** 5970 ng/mL

**Q.** What about the half-life ([1]; single dose LED-E 200 mg) of the same compound?
**A.** 6.1 h

**Q.** And the AUC(0-inf) ([1]; single dose LED-E 300 mg)?
**A.** 33100 ng·h/mL

**Q.** And the Cmax ([1]; single dose LED-E 300 mg)?
**A.** 7570 ng/mL

**Q.** What about the half-life ([1]; single dose LED-E 300 mg) of the same compound?
**A.** 7.48 h

**Q.** What about the AUC(0-inf) ([1]; single dose LED-E 500 mg) of the same compound?
**A.** 69300 ng·h/mL

**Q.** What about the Cmax ([1]; single dose LED-E 500 mg) of the same compound?
**A.** 16800 ng/mL

**Q.** And the half-life ([1]; single dose LED-E 500 mg)?
**A.** 11.3 h

**Q.** What about the AUC(0-inf) ([1]; single dose LED-E 800 mg) of the same compound?
**A.** 125000 ng·h/mL

**Q.** And the Cmax ([1]; single dose LED-E 800 mg)?
**A.** 24000 ng/mL

**Q.** What about the half-life ([1]; single dose LED-E 800 mg) of the same compound?
**A.** 8.59 h

**Q.** And the Tmax ([1]; single dose LED-E 800 mg)?
**A.** 2 h

**Q.** And the “Steady-state plasma concentrations reached by” value ([2]; LED-E q8h dosing)?
**A.** ≤ 3 days

**Q.** And the AUC ([2]; Day 10, LED-E 75 mg q8h, 0 to 8 h post-dose, geometric mean (CV %))?
**A.** 13900 ng·h/mL

**Q.** What about the Cmax ([2]; Day 10, LED-E 75 mg q8h, geometric mean (CV %)) of the same compound?
**A.** 3690 ng/mL

**Q.** What about the Tmax ([2]; Day 10, LED-E 75 mg q8h) of the same compound?
**A.** 1 h

**Q.** And the AUC [2, 8]?
**A.** 20800 ng·h/mL

**Q.** And the Cmax [2, 8]?
**A.** 5870 ng/mL

**Q.** What about the Tmax ([2]; Day 10, LED-E 150 mg q8h) of the same compound?
**A.** 0.75 h

**Q.** And the AUC [2, 9]?
**A.** 40900 ng·h/mL

**Q.** What about the Cmax [2, 9] of the same compound?
**A.** 11600 ng/mL

**Q.** What about the Tmax ([2]; Day 10, LED-E 300 mg q8h) of the same compound?
**A.** 1.13 h

**Q.** And the AUC [2, 10]?
**A.** 70000 ng·h/mL

**Q.** And the Cmax [2, 10]?
**A.** 15800 ng/mL

**Q.** What about the half-life ([2]; 75 mg, Day 10, LED-E 75 mg q8h, geometric mean (CV %), read-out: t1/2 (converted)) of the same compound?
**A.** 9.3 h

**Q.** What about the half-life ([2]; 150 mg, Day 10, LED-E 150 mg q8h, geometric mean (CV %), read-out: t1/2 (converted)) of the same compound?
**A.** 11.4 h

**Q.** What about the half-life ([2]; 300 mg, Day 10, LED-E 300 mg q8h, geometric mean (CV %), read-out: t1/2 (converted)) of the same compound?
**A.** 11.3 h

**Q.** What about the half-life ([2]; 500 mg, Day 10, LED-E 500 mg q8h, geometric mean (CV %), read-out: t1/2 (converted)) of the same compound?
**A.** 12.5 h

**Q.** What about the half-life ([2]; Day 10, after 10 days of q8h dosing, across dose groups, read-out: Terminal half-life (t1/2) in plasma) of the same compound?
**A.** 11 to 12 h

**Q.** What about the CL renal ([3]; single dose LED-E 300 mg) of the same compound?
**A.** 66.3 mL/min

**Q.** What about the CL renal ([3]; single dose LED-E 500 mg) of the same compound?
**A.** 53.3 mL/min

**Q.** And the CL renal ([3]; single dose LED-E 800 mg)?
**A.** 58.7 mL/min

**Q.** What about the CL renal ([3]; single dose LED-E 1000 mg) of the same compound?
**A.** 75.5 mL/min

**Q.** What about the “Ae0–8” value ([3]; single dose LED-E 300 mg) of the same compound?
**A.** 113 (23.3) mg

**Q.** And the “Ae0–48” value ([3]; single dose LED-E 300 mg)?
**A.** 131 (20.3) mg

**Q.** What about the “Ae0–8” value ([3]; single dose LED-E 500 mg) of the same compound?
**A.** 190 (14.1) mg

**Q.** What about the “Ae0–48” value ([3]; single dose LED-E 500 mg) of the same compound?
**A.** 220 (12.2) mg

**Q.** And the “Ae0–8” value ([3]; single dose LED-E 800 mg)?
**A.** 364 (6.14) mg

**Q.** What about the “Ae0–48” value ([3]; single dose LED-E 800 mg) of the same compound?
**A.** 438 (3.3) mg

**Q.** What about the “Ae0–8” value ([3]; single dose LED-E 1000 mg) of the same compound?
**A.** 459 (16.6) mg

**Q.** And the “Ae0–48” value ([3]; single dose LED-E 1000 mg)?
**A.** 515 (16.9) mg

**Q.** What about the CL renal ([4]; human, multiple doses LED-E 75 mg q8h) of the same compound?
**A.** 44.2 mL/min

**Q.** And the CL renal ([4]; human, multiple doses LED-E 150 mg q8h)?
**A.** 51.8 mL/min

**Q.** What about the CL renal ([4]; human, multiple doses LED-E 300 mg q8h) of the same compound?
**A.** 51.5 mL/min

**Q.** And the CL renal ([4]; human, multiple doses LED-E 500 mg q8h)?
**A.** 82 mL/min

**Q.** What about the bioavailability ([4]; human, after oral dosing of LED-E, inferred from urinary excretion) of the same compound?
**A.** ≥ 68%

**Q.** And the “Ae0–8” value ([4]; multiple doses LED-E 75 mg q8h)?
**A.** 43.1 (6.95) mg

**Q.** What about the “Ae0–48” value ([4]; multiple doses LED-E 75 mg q8h) of the same compound?
**A.** 51.6 (7.80) mg

**Q.** And the “Ae0–48” value ([4]; multiple doses LED-E 75 mg q8h, listed as LED)?
**A.** 51.6 mg

**Q.** And the “Ae0–8” value [4, 11]?
**A.** 73.1 (10.0) mg

**Q.** And the “Ae0–48” value [4, 11]?
**A.** 86.6 (11.1) mg

**Q.** And the “Ae0–8” value [4, 12]?
**A.** 137 (34.2) mg

**Q.** And the “Ae0–48” value [4, 12]?
**A.** 166 (27.8) mg

**Q.** And the “Ae0–8” value [4, 13]?
**A.** 283 (7.8) mg

**Q.** And the “Ae0–48” value [4, 13]?
**A.** 345 (11.2) mg

**Q.** And the “Ae0–48” value ([4]; multiple doses LED-E 500 mg q8h, listed as LED)?
**A.** 345 mg

**Q.** And the “Ae0–8” value [5, 14]?
**A.** 156 (11.3) mg

**Q.** And the “Ae0–8” value [5, 15]?
**A.** 243 (22.8)^d mg

**Q.** What about the CL renal [5, 14] of the same compound?
**A.** 85.8 mL/min

**Q.** And the CL renal [5, 15]?
**A.** 74.8 mL/min

**Q.** What about the AUC [6, 14] of the same compound?
**A.** 33300 ng·h/mL

**Q.** What about the AUC [6, 15] of the same compound?
**A.** 62200 ng·h/mL

**Q.** What about the Cmax [6, 14] of the same compound?
**A.** 8470 ng/mL

**Q.** And the Cmax [6, 15]?
**A.** 16200 ng/mL

**Q.** What about the Tmax ([6]; Tmax, Day 10, CTB 400 mg + LED-E 300 mg q8h, median (range)) of the same compound?
**A.** 1 h

**Q.** What about the half-life ([6]; t1/2, Day 10, CTB 400 mg + LED-E 300 mg q8h) of the same compound?
**A.** 11.4 h

**Q.** And the half-life ([6]; t1/2, Day 10, CTB 400 mg + LED-E 500 mg q8h)?
**A.** 12.3 h
